Measured values published in patent US11185530B2, “Composition for preventing or treating hearing loss, containing atorvastatin as active ingredient” (AJOU UNIVERSITY INDUSTRY-ACADEMIC COOPERATION FOUNDATION, priority 2017, dated 2021).

Experiments:
[1] = test system: cochlea of the diabetic mouse model; experiment: H&E staining and immunohistochemistry (DHE, TUNEL) of cochlea of diabetic mouse model; assay type: in vivo, C57/BL6J male mice
Description: Damage to cochlear hair cells around the base and middle turn (16 kHz) region, fibrocytes of the lateral wall and spiral ganglion cells of the cochlea of the diabetic mouse model established in Example 1 was evaluated through H & E (hematoxylin and eosin) staining and immunohistochemistry.
Then, the auditory cells (cochlear hair cells) were observed through immunohistochemistry.
The spiral ganglion cells were analyzed by H & E staining.
Stria vascularis cells in the lateral wall in the cochlea (inner ear) were analyzed by H & E staining.

[2] = test system: mouse model of age-related hearing loss; settings: Neuroscience Letters, 2007; cited from earlier work
[3] = test system: HEI-OC1 cells; experiment: Western blotting of cleaved caspase-3, PARP and AKT phosphorylation; assay type: cell-based
[4] = test system: auditory cell line (HEI-OC1); experiment: DCFDA staining of reactive oxygen species; assay type: cell-based; settings: HEI-OC1, palmitate and atorvastatin
[5] = test system: auditory cell line (HEI-OC1); experiment: TUNEL immunostaining quantified by fluorescence microscopy; assay type: cell-based; settings: HEI-OC1, combination of palmitate and atorvastatin
[6] = test system: auditory cell line (HEI-OC1); experiment: ATP detection luminescence; assay type: cell-based; settings: total extract of cells, palmitate plus atorvastatin
Description: In addition, the effects of atorvastatin on the protection of cells and on energy metabolisms were evaluated using ATP detection luminescence.

[7] = test system: auditory cell line (HEI-OC1); experiment: WST-1 assay of cytotoxicity and cell viability; assay type: cell-based
Description: The effect of palmitate on cytotoxicity and cell viability of the auditory cell line (HEI-OC1) was quantitatively analyzed through a WST-1 assay.
In order to evaluate the function of atorvastatin against the cytotoxicity of palmitate, atorvastatin was pre-treated at each concentration and palmitate was post-treated at each concentration.
The cytotoxic and apoptotic effects of palmitate and the cytoprotective effect of atorvastatin were analyzed using a student's T-test for statistical significance through quantification.

[8] = test system: diabetic mouse model; experiment: Body weight, blood glucose, glucose tolerance and insulin tolerance in diabetic mouse model; assay type: in vivo, C57/BL6J male mice; settings: 12-week diabetic mice, 20 mg/kg i.p. once every 2 days for 5 weeks, vs control group
Description: The diabetes-mediated hearing loss model was fed with 60% high fat/30% fructose water for 12 weeks and bred to induce diabetes. The diabetes model was established by measuring blood glucose levels, and testing glucose tolerance and insulin tolerance once every two weeks for 12 weeks, weighing weekly and conducting food/water intake efficiency tests twice weekly.
The experimental group was divided into an atorvastatin group (n=15, 20 mg/kg) and a control (vehicle) group (n=15, DMSO+normal saline) and intraperitoneal administration was conducted once every 2 days for 5 weeks. During the drug administration period, body weight and food intake efficiency tests were performed. Hearing tests, blood glucose measurement, and glucose and insulin tolerance tests were performed immediately before the end of the administration period.
In addition, body weight, blood glucose level, glucose tolerance and insulin tolerance were measured in the experimental group, obtained by administering atorvastatin to the 12-week diabetic mice, and in the control group. […] All statistical significance was analyzed using one-way ANOVA of SPSS program and student's T-tests.

[9] = test system: obese C57 mice; settings: Lipids in Health and Disease, 2014; cited from earlier work
[10] = test system: noise-induced hearing loss rat model; settings: low dose, 5 mg/kg; Int J Occup Environ Med, 2016; cited from earlier work
[11] = test system: breast cancer cell xenograft model; settings: Front. Med. China, 2009; cited from earlier work
[12] = test system: HEI-OC1 cells; experiment: PI staining and cell morphology analysis of apoptosis; assay type: cell-based; settings: HEI-OC1, 24 hours, 200 to 800 μM tested
Description: As a cell experiment model that replaces the diabetic mouse model through a high fat/fructose diet, that is, obesity, a cytotoxicity experiment model based on saturated fatty acid palmitate, which is an intermediate product of lipid synthesis that is excessively abundant during obesity, has been devised. HEI-OC1 (house-ear institute-organ of Corti 1), the auditory cell line conducting the major auditory function, was used, and the diabetes-mediated hearing loss cell line model was treated with palmitate.
In order to evaluate apoptosis, 24 hours after HEI-OC1 cells, the auditory cell line, were treated with 200 to 800 μM of palmitate, PI (propidium iodide) staining and the cell morphology thereof were analyzed. As a result, cell apoptosis was induced with a change in cell morphology from the palmitate concentration of 200 μM, and this phenomenon became more apparent as the concentration increased (FIG. 4 in part A).

[13] = atorvastatin-administered diabetic mice

SMILES: CC(C)c1c(C(=O)Nc2ccccc2)c(-c2ccccc2)c(-c2ccc(F)cc2)n1CC[C@@H](O)C[C@@H](O)CC(=O)O [atorvastatin]
- TUNEL expression in spiral ganglion cells [1, 13]: suppressed
- apoptosis (TUNEL) of stria vascularis cells [1, 13]: markedly suppressed
- enlargement of stria vascularis tissue of the lateral wall (H&E) [1, 13]: not observed
- reactive oxygen species in cochlear hair cells (DHE immunohistochemistry) [1, 13]: decreased reactive oxygen species, like normal mice
- spiral ganglion cell size and nucleus morphology (H&E) ([1]; atorvastatin-administered diabetic mice vs normal group): larger cell size than that of the normal group, but had no change in nucleus morphology
- morphology of cochlear hair cells (H&E) ([1]; diabetic mice administered with atorvastatin): no morphological changes
- hearing loss in age-related hearing loss model [2]: delaying or inhibiting hearing loss
- phosphorylation of AKT after treatment with atorvastatin ([3]; HEI-OC1, by concentration and time): increased
- AKT protein phosphorylation under palmitate treatment ([3]; HEI-OC1, palmitate plus atorvastatin): inhibited the reduction of AKT protein phosphorylation
- generation of reactive oxygen species (DCFDA) [4]: statistically significantly inhibit
- number of TUNEL-stained cells [5]: statistically decreased
- production of mitochondrial energy (ATP) [6]: maintained the production of mitochondrial energy (ATP)
- cytotoxicity, treatment only with atorvastatin ([7]; 250, 500 or 1,000 nM, HEI-OC1): cytotoxicity was not observed
- palmitate-induced apoptosis (WST-1 cell viability) ([7]; atorvastatin pre-treated, palmitate post-treated, 24 hours): significantly inhibited
- blood glucose level [8]: significantly improved
- body weight [8]: reduced
- glucose tolerance (GTT) [8]: significantly improved
- insulin tolerance (ITT) [8]: significantly improved
- obesity-induced type 2 diabetes [9]: inhibits obesity-induced type 2 diabetes
- hearing loss in noise-induced model [10]: statistically significant effect of inhibiting hearing loss
- tumor growth and metastasis [11]: inhibit tumor growth and metastasis

SMILES: CCCCCCCCCCCCCCCC(=O)O [palmitate]
- cytotoxicity (WST-1 cell viability assay) ([7]; 24 hours, palmitate at 100, 200 and 400 μM): 20 to 40%
- concentration from which cell apoptosis with change in cell morphology was induced [12]: ≥ 200 μM
